Reference: the NIST ThermoML archive (doi:10.1016/j.fluid.2006.01.030)
± gives the expanded uncertainty stated by the source.

Test: xn = mol fraction of the nth substance listed
Conditions: Liquid

CCCCCCC [heptane] + CCO
viscosity [mPa·s]
Conditions	x2 = 0	x2 = 0.125	x2 = 0.25	x2 = 0.375	x2 = 0.5	x2 = 0.625	x2 = 0.75	x2 = 0.875
293.15 K, 100 kPa, Capillary tube (Ostwald / Ubbelohde) method	0.41 ± 0.009	0.419 ± 0.009	0.45 ± 0.01	0.494 ± 0.01	0.556 ± 0.012	0.644 ± 0.014	0.757 ± 0.016	0.931 ± 0.02
293.15 K, 20000 kPa, Falling or rolling sphere viscometry	0.509 ± 0.021	0.518 ± 0.022	0.547 ± 0.023	0.597 ± 0.025	0.668 ± 0.028	0.76 ± 0.033	0.885 ± 0.038	1.052 ± 0.046
293.15 K, 40000 kPa, Falling or rolling sphere viscometry	0.604 ± 0.025	0.614 ± 0.026	0.648 ± 0.027	0.707 ± 0.03	0.787 ± 0.033	0.888 ± 0.038	1.023 ± 0.044	1.2 ± 0.052
293.15 K, 60000 kPa, Falling or rolling sphere viscometry	0.706 ± 0.03	0.718 ± 0.03	0.757 ± 0.032	0.824 ± 0.035	0.913 ± 0.039	1.022 ± 0.044	1.168 ± 0.05	1.354 ± 0.058
293.15 K, 80000 kPa, Falling or rolling sphere viscometry	0.817 ± 0.034	0.832 ± 0.035	0.875 ± 0.037	0.951 ± 0.04	1.047 ± 0.044	1.162 ± 0.05	1.316 ± 0.056	1.509 ± 0.065
293.15 K, 100000 kPa, Falling or rolling sphere viscometry	0.937 ± 0.039	0.953 ± 0.04	1.003 ± 0.042	1.087 ± 0.046	1.191 ± 0.051	1.312 ± 0.056	1.473 ± 0.063	1.674 ± 0.072
313.15 K, 100 kPa, Capillary tube (Ostwald / Ubbelohde) method	0.333 ± 0.007	0.336 ± 0.007	0.354 ± 0.008	0.383 ± 0.008	0.421 ± 0.009	0.475 ± 0.01	0.55 ± 0.012	0.66 ± 0.014
313.15 K, 20000 kPa, Falling or rolling sphere viscometry	0.408 ± 0.017	0.413 ± 0.017	0.429 ± 0.018	0.464 ± 0.02	0.508 ± 0.022	0.567 ± 0.024	0.65 ± 0.028	0.766 ± 0.033
313.15 K, 40000 kPa, Falling or rolling sphere viscometry	0.487 ± 0.02	0.495 ± 0.021	0.513 ± 0.022	0.553 ± 0.024	0.602 ± 0.026	0.666 ± 0.029	0.756 ± 0.033	0.877 ± 0.038
313.15 K, 60000 kPa, Falling or rolling sphere viscometry	0.57 ± 0.024	0.579 ± 0.024	0.599 ± 0.025	0.644 ± 0.027	0.699 ± 0.03	0.768 ± 0.033	0.864 ± 0.037	0.989 ± 0.043
313.15 K, 80000 kPa, Falling or rolling sphere viscometry	0.658 ± 0.028	0.666 ± 0.028	0.69 ± 0.029	0.739 ± 0.031	0.8 ± 0.034	0.874 ± 0.038	0.974 ± 0.042	1.102 ± 0.048
313.15 K, 100000 kPa, Falling or rolling sphere viscometry	0.751 ± 0.032	0.758 ± 0.032	0.786 ± 0.033	0.838 ± 0.036	–	–	–	–
